How the values were obtained:
[1] = tested on: MYC mRNA expression in SU-DHL-4 cells; experiment: Suppressive effect on MYC mRNA expression (Test Example 2); assay type: cell-based, human; conditions: test compound 100 nmol/L, 6 hours, qRT-PCR corrected by ACTB, GAPDH; for inhibition at 0.1 µM: Homo sapiens, HPRT1, read-out: Suppression Rate of MYC mRNA Expression (%); for Suppression Rate of MYC mRNA Expression (%): HPRT1
Procedure, shortened: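 SU-DHL-4 cells were treated for 6 h at 37 °C with compound (0.1% DMSO final). MYC mRNA was measured by TaqMan qRT-PCR and normalised to the geometric mean of ACTB, GAPDH and HPRT1. Suppression was calculated relative to untreated wells.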

[2] = biological target: T1, interaction between BRD2 and E3 ligase DCAF16 (Homo sapiens, UniProt P25440); experiment: Verification of BET-DCAF16 interaction, comparative test with known compounds (Test Example 8); assay type: cell-based; conditions: test compound 1.0 μmol/L; HEK293 cells expressing Nluc-BRD2 and DCAF16-HaloTag; MLN4924 instead of bortezomib; substrate diluted 200-fold
T1 construct: expressed in transfected cells; host or cells: HEK293
Protocol: Cultured HEK293 cells were washed with DPBS, no calcium, no magnesium (DPBS: Code No. 14190144, Thermo Fisher Scientific) and harvested using TrypLE™ Express Enzyme (1×), phenol red (TrypLE: Code No. 12605036, Thermo Fisher Scientific), and prepared to be 4.0×10^5 cells/mL in DMEM. A volume of 12 mL of the cell suspension was seeded in a Falcon® 100 mm×20 mm cell culture dish and cultured in a carbon dioxide gas incubator at 37° C. for 6 hours. For one dish, 12 μg of pFC27K_DCAF16, 0.12 μg of p FN31A_BRD2, 48 μL of FuGENE® HD Transfection Reagent (Code No. E2312, Promega) were added to 600 μL of Opti-MEM™ I Reduced Serum Medium, no phenol red (Opti-MEM: Code No. 11058021, Thermo Fisher Scientific) and mixed. The mixture was allowed to stand for 15 minutes and added to HEK293 cells. After 20 hours, the cells were washed with DPBS, no calcium, no magnesium, harvested from the dish using TrypLE, and then neutralized in DMEM. After centrifugation, the supernatant was discarded, and the cells were prepared to be 2.2×10^5 cells/mL using Opti-MEM containing 4% FBS. HaloTag® NanoBRET™ 618 Ligand contained in NanoBRET™ Nano-Glo® Detection System (Code No. N1662, Promega) and bortezomib as a proteasome inhibitor were added to be a 1000-fold dilution. In addition, a group was prepared to which DMSO was added instead of HaloTag® NanoBRET™ 618 Ligand. 90 μL of the cell suspension was seeded in CulturPlate-96 (Code No. 6005688, PerkinElmer), and allowed to stand in a carbon dioxide gas incubator at 37° C. for 30 minutes. A volume of 10 mmol/L of a solution of the test compound in DMSO was adjusted to be 100 μmol/L with Opti-MEM, 10 μL of the solution was added to each well, and then the mixture was allowed to stand in a carbon dioxide gas incubator at 37° C. for 2 hours. At this time, all the groups were prepared so that the final concentration of DMSO was 0.1 vol % including the group to which the test compound was not added. NanoBRET™ Nano-Glo® Substrate included in the NanoBRET™ Nano-Glo® Detection System was diluted 100-fold with Opti-MEM. After adding 25 μL of the dilution each and stirring for 30 seconds, measurement was performed with an Emission Filter of 460 nm and 620 nm using EnVision (PerkinElmer). The BRET ratio of 10 μmol/L for each test compound was calculated using the following formula. The experiment was performed by n=3 and the average value was calculated.
BRET ratio={(A/B)−(C/D)}×1000 • A: value at 620 nm filter of the well with addition of test compound and 618 Ligand • B: value at 460 nm filter of the well with addition of test compound and 618 Ligand • C: value at 620 nm filter of the well without addition of test compound or 618 Ligand • D: value at 460 nm filter of the well without addition of test compound or 618 Ligand
For comparison with the known comparative compound 1, the enhancement of the BET-DCAF16 interaction was verified by the same method as in test example 7. However, for the purpose of system optimization, bortezomib was changed to Neddylation inhibitor MLN4924 (Code No. HY-10484, MedChem Express), and the dilution ratio of NanoBRET™ Nano-Glo® Substrate was set to 200-fold. The BRET ratio of 1.0 μmol/L of each test compound was calculated, and the results are shown as in Table 23 below.

T1 sequence (P25440 whole entry): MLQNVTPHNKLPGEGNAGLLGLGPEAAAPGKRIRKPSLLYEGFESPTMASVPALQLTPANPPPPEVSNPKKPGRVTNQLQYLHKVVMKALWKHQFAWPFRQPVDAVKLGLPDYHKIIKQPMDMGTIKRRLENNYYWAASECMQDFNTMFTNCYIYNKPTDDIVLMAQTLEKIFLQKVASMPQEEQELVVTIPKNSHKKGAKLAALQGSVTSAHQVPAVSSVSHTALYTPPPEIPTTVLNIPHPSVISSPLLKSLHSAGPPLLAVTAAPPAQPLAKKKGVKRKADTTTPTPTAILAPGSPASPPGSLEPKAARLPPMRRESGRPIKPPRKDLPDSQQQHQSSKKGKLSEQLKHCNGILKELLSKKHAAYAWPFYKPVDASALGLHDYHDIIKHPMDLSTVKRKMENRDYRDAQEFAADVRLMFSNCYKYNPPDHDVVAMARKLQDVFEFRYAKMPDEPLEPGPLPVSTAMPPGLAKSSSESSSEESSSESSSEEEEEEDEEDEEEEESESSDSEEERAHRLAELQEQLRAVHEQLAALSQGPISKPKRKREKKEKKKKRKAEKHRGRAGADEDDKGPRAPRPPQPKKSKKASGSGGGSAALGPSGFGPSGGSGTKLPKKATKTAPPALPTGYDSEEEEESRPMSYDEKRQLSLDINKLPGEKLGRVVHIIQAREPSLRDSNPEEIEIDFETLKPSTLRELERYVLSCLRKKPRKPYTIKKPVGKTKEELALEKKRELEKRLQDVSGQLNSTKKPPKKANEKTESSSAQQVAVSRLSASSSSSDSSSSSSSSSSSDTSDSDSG
T1 sequence (Q9NXF7 whole entry partner): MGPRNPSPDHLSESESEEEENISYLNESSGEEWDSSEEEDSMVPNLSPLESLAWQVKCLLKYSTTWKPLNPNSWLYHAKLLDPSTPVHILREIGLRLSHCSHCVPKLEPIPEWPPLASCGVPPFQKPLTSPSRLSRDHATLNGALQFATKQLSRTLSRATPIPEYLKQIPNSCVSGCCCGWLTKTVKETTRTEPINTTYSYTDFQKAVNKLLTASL

Row | Compound | inhibition at 0.1 µM [1] | BRET Ratio [2] | Suppression Rate of MYC mRNA Expression (%) [1]
1 | CCC(=O)N1c2ccccc2[C@H](Nc2ccc(C(=O)N3CCn4c(-c5ccc(N[C@@H]6C[C@H](C)N(C(=O)CC)c7ccccc76)cc5)cnc4C3)cc2)C[C@@H]1C [Compound 3e, 1-[(2S,4R)-2-Methyl-4-({4-[3-(4-{[(2S,4R)-2-methyl-1-propionyl-1,2,3,4-tetrahydroquinolin-4-yl]amino}phenyl)-5,6,7,8-tetrahydroimidazo[1,2-a]pyrazine-7-carbonyl]phenyl}amino)-3,4-dihydroquinolin-1(2H)-yl]propan-1-one] | 98.3% | 9.58 | –
2 | CCC(=O)N1c2ccccc2[C@H](Nc2ccc(NC(=O)CCCC(=O)NC3CCC(N[C@@H]4C[C@H](C)N(C(=O)CC)c5ccccc54)CC3)cc2)C[C@@H]1C (stereo partly drawn) [Compound 7o, N^1-((1R,4r)-4-(((2S,4R)-2-Methyl-1-propionyl-1,2,3,4-tetrahydroquinolin-4-yl)amino)cyclohexyl)-N^5-(4-(((2S,4R)-2-methyl-1-propionyl-1,2,3,4-tetrahydroquinolin-4-yl)amino)phenyl)glutaramide] | – | 13.00 | 97.4%
3 | CCC(=O)N1c2ccccc2[C@H](Nc2ccc(NC(=O)CCCC(=O)NC3CCN(Cc4cc(O)cc(-c5c(C)noc5C)c4)CC3)cc2)C[C@@H]1C [Compound 12c, N^1-(1-(3-(3,5-Dimethylisoxazol-4-yl)-5-hydroxybenzyl)piperidin-4-yl)-N^5-(4-(((2S,4R)-2-methyl-1-propionyl-1,2,3,4-tetrahydroquinolin-4-yl)amino)phenyl)glutaramide] | 97.8% | 13.16 | –
4 | CCC(=O)N1c2ccccc2[C@H](Nc2ccc(C(=O)NCc3cn(-c4ccc(N[C@@H]5C[C@H](C)N(C(=O)CC)c6ccccc65)cc4)nn3)cc2)C[C@@H]1C [Compound 3a, 4-{[(2S,4R)-2-Methyl-1-propionyl-1,2,3,4-tetrahydroquinolin-4-yl]amino}-N-{[1-(4-{[(2S,4R)-2-methyl-1-propionyl-1,2,3,4-tetrahydroquinolin-4-yl]amino}phenyl)-1H-1,2,3-triazol-4-yl]methyl}benzamide] | 98.1% | 14.46 | –
5 | CCC(=O)N1c2ccccc2[C@H](Nc2ccc(NC(=O)N3CCN(C(=O)C4CCC(N[C@@H]5C[C@H](C)N(C(=O)CC)c6ccccc65)CC4)CC3)cc2)C[C@@H]1C (stereo partly drawn) [Compound 7p, 4-((1R,4r)-4-(((2S,4R)-2-Methyl-1-propionyl-1,2,3,4-tetrahydroquinolin-4-yl)amino)cyclohexane-1-carbonyl)-N-(4-(((2S,4R)-2-methyl-1-propionyl-1,2,3,4-tetrahydroquinolin-4-yl)amino)phenyl)piperazine-1-carboxamide] | – | 11.57 | 97.9%
6 | CCC(=O)N1c2ccccc2[C@H](Nc2ccc(-n3cc(CCNC(=O)[C@H]4CC[C@H](N[C@@H]5C[C@H](C)N(C(=O)CC)c6ccccc65)CC4)nn3)cc2)C[C@@H]1C [Compound 8a, (1R,4r)-4-(((2S,4R)-2-Methyl-1-propionyl-1,2,3,4-tetrahydroquinolin-4-yl)amino)-N-(2-(1-(4-(((2S,4R)-2-methyl-1-propionyl-1,2,3,4-tetrahydroquinolin-4-yl)amino)phenyl)-1H-1,2,3-triazol-4-yl)ethyl)cyclohexane-1-carboxamide] | – | 12.45 | –
7 | Cc1sc2c(c1C)C(c1ccc(C(=O)NCc3cn(-c4ccc(C5=N[C@@H](CC(=O)OC(C)(C)C)c6nnc(C)n6-c6sc(C)c(C)c65)cc4)nn3)cc1)=N[C@@H](CC(=O)OC(C)(C)C)c1nnc(C)n1-2 [Compound 3b, tert-Butyl 2-[(S)-4-(4-{4-[(4-{(S)-6-[2-(tert-butoxy)-2-oxoethyl]-2,3,9-trimethyl-6H-thieno[3,2-f][1,2,4]triazolo[4,3-a][1,4]diazepin-4-yl}benzamide)methyl]-1H-1,2,3-triazol-1-yl}phenyl)-2,3,9-trimethyl-6H-thieno[3,2-f][1,2,4]triazolo[4,3-a][1,4]diazepin-6-yl]acetate] | – | 9.69 | –
8 | CCC(=O)N1c2ccccc2[C@H](Nc2ccc(NC(=O)CCCC(=O)Nc3ccc(N[C@@H]4C[C@H](C)N(C(=O)CC)c5ccccc54)cc3)cc2)C[C@@H]1C [Compound 6k, N^1,N^5-Bis(4-(((2S,4R)-2-methyl-1-propionyl-1,2,3,4-tetrahydroquinolin-4-yl)amino)phenyl)glutaramide] | 97% | 12.62 | –
9 | CCC(=O)N1c2ccccc2[C@H](Nc2ccc(C(=O)NCCCNC(=O)c3ccc(C4=N[C@@H](CC(=O)OC(C)(C)C)c5nnc(C)n5-c5sc(C)c(C)c54)cc3)cc2)C[C@@H]1C [Compound 1h, tert-Butyl 2-[(S)-2,3,9-trimethyl-4-(4-{[3-(4-{[(2S,4R)-2-methyl-1-propionyl-1,2,3,4-tetrahydroquinolin-4-yl]amino}benzamide)propyl]carbamoyl}phenyl)-6H-thieno[3,2-f][1,2,4]triazolo[4,3-a][1,4]diazepin-6-yl]acetate] | – | 10.95 | –
10 | CCC(=O)N1c2ccccc2[C@H](Nc2ccc(NC(=O)CNC(=O)N[C@H]3CC[C@H](N[C@@H]4C[C@H](C)N(C(=O)CC)c5ccccc54)CC3)cc2)C[C@@H]1C [Compound 8j, 2-(3-((1R,4R)-4-(((2S,4R)-2-Methyl-1-propionyl-1,2,3,4-tetrahydroquinolin-4-yl)amino)cyclohexyl)ureido)-N-(4-(((2S,4R)-2-methyl-1-propionyl-1,2,3,4-tetrahydroquinolin-4-yl)amino)phenyl)acetamide] | – | 11.91 | 97.2%
11 | CCC(=O)N1c2ccccc2[C@H](Nc2ccc(-n3cc(CNC(=O)c4ccc(Cn5c(CC)cc6c5CCCC6=O)cc4)nn3)cc2)C[C@@H]1C [Compound 15f, 4-((2-Ethyl-4-oxo-4,5,6,7-tetrahydro-1H-indol-1-yl)methyl)-N-((1-(4-(((2S,4R)-2-methyl-1-propionyl-1,2,3,4-tetrahydroquinolin-4-yl)amino)phenyl)-1H-1,2,3-triazol-4-yl)methyl)benzamide] | 97.2% | 12.43 | –
12 | CCC(=O)N1c2ccccc2[C@H](Nc2ccc(C(=O)NCCCNC(=O)c3ccc(C4=N[C@@H](CC(=O)OC5CCC(O)CC5)c5nnc(C)n5-c5sc(C)c(C)c54)cc3)cc2)C[C@@H]1C (stereo partly drawn) [Compound 13d, 4-Hydroxycyclohexyl 2-((S)-2,3,9-trimethyl-4-(4-((3-(4-(((2S,4R)-2-methyl-1-propionyl-1,2,3,4-tetrahydroquinolin-4-yl)amino)benzamide)propyl)carbamoyl)phenyl)-6H-thieno[3,2-f][1,2,4]triazolo[4,3-a][1,4]diazepin-6-yl)acetate] | – | – | 97.2%

Reference: patent publication US20220378923A1, “BET DEGRADER” (KYOWA KIRIN CO., LTD., priority 2019, published 2022)
